From ChEMBL document CHEMBL5252609, “Design, synthesis, and antitumor evaluation of morpholine substituted bisnaphthalimides as DNA targeting agents” (Bioorg Med Chem Lett, 2023)
Calls of active or inactive are those of the source. The calls are words filed in the database; no cut-off is given here.

Assays:
MGC-803 [1] = assay: Antitumor activity against human MGC-803 cells xenografted in nude mouse assessed as reduction in tumor weight at 4 mg/kg, ip administrated every other day for 21 days relative to control; assay type: functional; parameters: scale not given: the % may be the effect or the level left; settings: time 21 day
CNE-2 [2] = assay: Downregulation of cyclin E level in human CNE-2 cells measured after 48 hrs by Western blot analysis; assay type: functional, cell-based; settings: dose <= 2.0 µM
CNE-2 [3] = assay: Induction of cell cycle arrest in human CNE-2 cells assessed as accumulation of cells at G1 phase at 2 uM measured after 48 hrs by flow cytometry analysis (Rvb= 73.18%); assay type: functional
MGC-803 [4] = assay: Antitumor activity against human MGC-803 cells xenografted in nude mouse assessed as reduction in tumor volume growth rate at 8 mg/kg, ip administrated every other day for 21 days relative to control; assay type: functional; parameters: scale not given: the % may be the effect or the level left; settings: time 21 day
CNE-2 [5] = assay: Antiproliferative activity against human CNE-2 cells assessed as cell growth inhibition by MTT assay; assay type: functional, cell-based
[6] = molecular target: T1, DNA topoisomerase 1 (Homo sapiens) (UniProt P11387); assay: Inhibition of human DNA topoisomerase 1 assessed as reduction in pBR322 DNA relaxation at 10 to 20 uM by gel electrophoresis method; settings: dose 10-20 µM
T1 sequence (whole entry): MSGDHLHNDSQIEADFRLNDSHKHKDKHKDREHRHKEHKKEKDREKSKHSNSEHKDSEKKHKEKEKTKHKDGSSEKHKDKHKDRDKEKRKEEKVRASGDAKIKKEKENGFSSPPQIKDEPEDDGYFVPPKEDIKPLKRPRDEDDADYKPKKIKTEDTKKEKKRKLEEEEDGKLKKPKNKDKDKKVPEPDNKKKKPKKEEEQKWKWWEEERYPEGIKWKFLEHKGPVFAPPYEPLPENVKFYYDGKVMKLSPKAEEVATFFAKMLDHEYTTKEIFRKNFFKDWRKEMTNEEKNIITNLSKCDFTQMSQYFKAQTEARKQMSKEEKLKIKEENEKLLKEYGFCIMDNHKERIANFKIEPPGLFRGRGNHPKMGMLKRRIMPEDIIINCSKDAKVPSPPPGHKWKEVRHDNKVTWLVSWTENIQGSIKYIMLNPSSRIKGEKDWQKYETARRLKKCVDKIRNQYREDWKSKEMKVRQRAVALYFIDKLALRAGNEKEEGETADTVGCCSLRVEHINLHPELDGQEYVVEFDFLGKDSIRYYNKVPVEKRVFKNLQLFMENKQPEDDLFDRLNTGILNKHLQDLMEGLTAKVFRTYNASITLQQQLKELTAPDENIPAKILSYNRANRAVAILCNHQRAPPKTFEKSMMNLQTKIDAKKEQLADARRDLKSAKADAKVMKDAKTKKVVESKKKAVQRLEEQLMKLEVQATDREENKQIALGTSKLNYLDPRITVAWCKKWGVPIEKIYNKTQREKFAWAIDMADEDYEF

CNE-2 [7] = assay: Induction of apoptosis in human CNE-2 cells assessed as late apoptotic cells at 2 uM measured after 24 hrs by annexin-V-FITC and PI staining based flow cytometry analysis (reference value: 3.79%); assay type: functional
CNE-2 [8] = assay: Induction of apoptosis in human CNE-2 cells assessed as necrotic cells at 1 uM measured after 24 hrs by annexin-V-FITC and PI staining based flow cytometry analysis (reference value: 0.959%); assay type: functional
CNE-2 [9] = assay: Induction of cell cycle arrest in human CNE-2 cells assessed as accumulation of cells at S phase at 0.5 uM measured after 48 hrs by flow cytometry analysis (Rvb= 19.83%); assay type: functional
CNE-2 [10] = assay: Induction of apoptosis in human CNE-2 cells assessed as early apoptotic cells at 1 uM measured after 24 hrs by annexin-V-FITC and PI staining based flow cytometry analysis (reference value: 0.439%); assay type: functional
CNE-2 [11] = assay: Induction of apoptosis in human CNE-2 cells at 0.5 to 2 uM by Hoechst 33258 staining based fluorescence microscopic analysis; assay type: functional, cell-based; settings: dose 0.5-2 µM
CNE-2 [12] = assay: Induction of apoptosis in human CNE-2 cells assessed as early apoptotic cells at 2 uM measured after 24 hrs by annexin-V-FITC and PI staining based flow cytometry analysis (reference value: 0.439%); assay type: functional
CNE-2 [13] = assay: Induction of apoptosis in human CNE-2 cells assessed as necrotic cells at 0.5 uM measured after 24 hrs by annexin-V-FITC and PI staining based flow cytometry analysis (reference value: 0.959%); assay type: functional
CNE-2 [14] = assay: Induction of cell cycle arrest in human CNE-2 cells assessed as accumulation of cells at G2 phase at 0.5 uM measured after 48 hrs by flow cytometry analysis (Rvb= 6.99%); assay type: functional
CNE-2 [15] = assay: Induction of cell cycle arrest in human CNE-2 cells assessed as accumulation of cells at S phase at 2 uM measured after 48 hrs by flow cytometry analysis (Rvb= 19.83%); assay type: functional
CNE-2 [16] = assay: Induction of ROS generation in human CNE-2 cells at 0.5 to 2 uM incubated for 24 hrs by DCFH2-DA probe based analysis; assay type: functional, cell-based; settings: dose 0.5-2 µM
CNE-2 [17] = assay: Induction of apoptosis in human CNE-2 cells assessed as early apoptotic cells at 0.5 uM measured after 24 hrs by annexin-V-FITC and PI staining based flow cytometry analysis (reference value: 0.439%); assay type: functional
CNE-2 [18] = assay: Induction of cell cycle arrest in human CNE-2 cells assessed as accumulation of cells at G1 phase at 1 uM measured after 48 hrs by flow cytometry analysis (Rvb= 73.18%); assay type: functional
CNE-2 [19] = assay: Induction of apoptosis in human CNE-2 cells assessed as late apoptotic cells at 1 uM measured after 24 hrs by annexin-V-FITC and PI staining based flow cytometry analysis (reference value: 3.79%); assay type: functional
Homo sapiens = species on record: Homo sapiens; assay: Binding affinity to pBR322 DNA (unknown origin) assessed as DNA intercalation at 20 to 100 uM by electrophoresis assay; settings: dose 20-100 µM
CNE-2 [20] = assay: Downregulation of cyclin B level in human CNE-2 cells measured after 48 hrs by Western blot analysis; assay type: functional, cell-based; settings: dose <= 2.0 µM
CNE-2 [21] = assay: Induction of cell cycle arrest in human CNE-2 cells assessed as accumulation of cells at G2 phase at 1 uM measured after 48 hrs by flow cytometry analysis (Rvb= 6.99%); assay type: functional
CNE-2 [22] = assay: Induction of apoptosis in human CNE-2 cells assessed as viable cells at 1 uM measured after 24 hrs by annexin-V-FITC and PI staining based flow cytometry analysis (reference value: 94.8%); assay type: functional; settings: read-out: Activity
CNE-2 [23] = assay: Downregulation of CDK2 level in human CNE-2 cells measured after 48 hrs by Western blot analysis; assay type: functional, cell-based; settings: dose <= 2.0 µM
A2780 = assay: Antiproliferative activity against human A2780 cells assessed as cell growth inhibition by MTT assay; assay type: functional, cell-based
MGC-803 [24] = assay: Antitumor activity against human MGC-803 cells xenografted in nude mouse assessed as reduction in tumor volume growth rate at 4 mg/kg, ip administrated every other day for 21 days relative to control; assay type: functional; parameters: scale not given: the % may be the effect or the level left; settings: time 21 day
T-24 = assay: Antiproliferative activity against human T24 cells assessed as cell growth inhibition by MTT assay; assay type: functional, cell-based
CNE-2 [25] = assay: Induction of apoptosis in human CNE-2 cells assessed as viable cells at 0.5 uM measured after 24 hrs by annexin-V-FITC and PI staining based flow cytometry analysis (reference value: 94.8%); assay type: functional; settings: read-out: Activity
CNE-2 [26] = assay: Upregulation of p27 level in human CNE-2 cells measured after 48 hrs by Western blot analysis; assay type: functional, cell-based; settings: dose <= 2.0 µM

O=C1c2cccc3c(N4CCOCC4)c([N+](=O)[O-])cc(c23)C(=O)N1CCNCCN1C(=O)c2cccc3c(N4CCOCC4)c([N+](=O)[O-])cc(c23)C1=O
Activity (MGC-803 [1]): 44.7%
Activity (CNE-2 [2]): Dose-Dependent Effect
Activity (CNE-2 [3]): 39.09%
Activity (MGC-803 [4]): 46%
IC50 (CNE-2 [5]): 0.41 µM
inhibition [6]: Active
Activity (CNE-2 [7]): 13.4%
Activity (CNE-2 [8]): 7.3%
Activity (CNE-2 [9]): 31.78%
Activity (CNE-2 [10]): 2.19%
Activity (CNE-2 [11]): Active
Activity (CNE-2 [12]): 2.62%
Activity (CNE-2 [13]): 7.04%
Activity (CNE-2 [14]): 1.55%
Activity (CNE-2 [15]): 49.01%
Activity (CNE-2 [16]): Active
Activity (CNE-2 [17]): 3.7%
Activity (CNE-2 [18]): 66.18%
Activity (CNE-2 [19]): 7.06%
Activity (Homo sapiens): Active
Activity (CNE-2 [20]): Dose-Dependent Effect
Activity (CNE-2 [21]): 2.69%
viability at 1 µM (CNE-2 [22]): 83.4%
Activity (CNE-2 [23]): Dose-Dependent Effect
IC50 (A2780): 0.62 µM
Activity (MGC-803 [24]): 49.7%
IC50 (T-24): 1.24 µM
viability at 0.5 µM (CNE-2 [25]): 82.6%
Activity (CNE-2 [26]): Dose-Dependent Effect

CN(C)CCN1C(=O)c2cccc3c(N4CCOCC4)c([N+](=O)[O-])cc(c23)C1=O
Activity (MGC-803 [1]): 34.4%
Activity (CNE-2 [2]): Dose-Dependent Effect
Activity (CNE-2 [3]): 38.9%
Activity (MGC-803 [4]): 56.1%
IC50 (CNE-2 [5]): 1.48 µM
inhibition [6]: Active
Activity (CNE-2 [7]): 9.2%
Activity (CNE-2 [8]): 5.56%
Activity (CNE-2 [9]): 20.05%
Activity (CNE-2 [10]): 3.01%
Activity (CNE-2 [11]): Active
Activity (CNE-2 [12]): 17%
Activity (CNE-2 [13]): 2.12%
Activity (CNE-2 [14]): 7.03%
Activity (CNE-2 [15]): 35.62%
Activity (CNE-2 [16]): Active
Activity (CNE-2 [17]): 5.68%
Activity (CNE-2 [18]): 69.25%
Activity (CNE-2 [19]): 8.53%
Activity (Homo sapiens): Active
Activity (CNE-2 [20]): Dose-Dependent Effect
Activity (CNE-2 [21]): 12.63%
viability at 1 µM (CNE-2 [22]): 82.9%
Activity (CNE-2 [23]): Dose-Dependent Effect
IC50 (A2780): 4.81 µM
Activity (MGC-803 [24]): 59.9%
IC50 (T-24): 1.54 µM
viability at 0.5 µM (CNE-2 [25]): 84%
Activity (CNE-2 [26]): Dose-Dependent Effect
